Laboratory results as given in ChEMBL document CHEMBL3046045, “Synthesis of 7-methoxyapigeninidin and its fungicidal activity against Gloeocercospora sorghi” (1996).
Activity calls are given as the source filed them. The rule behind the calls is not given here.

What was measured:
[1] = tested on: Microdochium sorghi; experiment: Antifungal activity against Gloeocercospora sorghi in potato dextrose agar medium assessed as inhibition of radial growth; assay type: functional
[2] = tested on: Pyricularia oryzae; experiment: Antifungal activity against Magnaporthe oryzae assessed as inhibition of spore germination; assay type: functional
[3] = tested on: Pyricularia oryzae; experiment: Antifungal activity against Magnaporthe oryzae assessed as radial growth inhibition at 100 ppm; assay type: functional, organism-based
[4] = tested on: Microdochium sorghi; experiment: Antifungal activity against Gloeocercospora sorghi in potato dextrose agar medium assessed as inhibition of radial growth at 100 ppm; assay type: functional
[5] = tested on: Pyricularia oryzae; experiment: Antifungal activity against Magnaporthe oryzae assessed as inhibition of spore germination at 100 ppm; assay type: functional, organism-based

Row | Compound | I50 [1] [ppm] | I50 [2] [ppm] | inhibition [3] | inhibition at 100 ppm [4] [%] | inhibition [5]
1 | COc1cc(O)c2ccc(-c3ccc(O)cc3)[o+]c2c1.[Cl-] [7-METHOXYAPIGENINIDIN] | 50 | 50 | inactive | – | –
2 | Oc1ccc(-c2ccc3c(O)cc(O)cc3[o+]2)cc1 [APIGENIDIN] | – | – | inactive | 25 | inactive
